In ChEMBL document CHEMBL2040820, “Synthesis and selective cytotoxic activity of novel hybrid chalcones against prostate cancer cells” (Bioorg Med Chem Lett, 2012):

Experiments:
PC-3 [1] = test: Anticancer activity against human PC3 cells after 48 hrs by MTT assay; type: functional, cell-based; conditions: PC-3, 48 h
HT-29 [2] = test: Anticancer activity against human HT-29 cells after 48 hrs by MTT assay; type: functional, cell-based; conditions: HT-29, 48 h
B16 [3] = test: Anticancer activity against mouse B16 cells after 48 hrs by MTT assay; type: functional, cell-based; conditions: B16, 48 h
NCI-H460 [4] = test: Anticancer activity against human NCI-H460 cells after 48 hrs by MTT assay; type: functional, cell-based; conditions: NCI-H460, 48 h
HT-29 [5] = test: Growth inhibition of human HT-29 cells at 100 uM after 48 hrs by MTT assay; type: functional; conditions: HT-29, 48 h, read-out: GI
NCI-H460 [6] = test: Growth inhibition of human NCI-H460 cells at 100 uM after 48 hrs by MTT assay; type: functional; conditions: NCI-H460, 48 h, read-out: GI
B16 [7] = test: Growth inhibition of mouse B16 cells at 100 uM after 48 hrs by MTT assay; type: functional; conditions: B16, 48 h, read-out: GI
PC-3 [8] = test: Growth inhibition of human PC3 cells at 100 uM after 48 hrs by MTT assay; type: functional; conditions: PC-3, 48 h, read-out: GI

| SMILES | IC50 (PC-3 [1]) [µM] | IC50 (HT-29 [2]) [µM] | IC50 (B16 [3]) [µM] | IC50 (NCI-H460 [4]) [µM] | inhibition of growth at 100 µM (HT-29 [5]) [%] | inhibition of growth at 100 µM (NCI-H460 [6]) [%] | inhibition of growth at 100 µM (B16 [7]) [%] | inhibition of growth at 100 µM (PC-3 [8]) [%] |
| --- | --- | --- | --- | --- | --- | --- | --- | --- |
| CC1(C)Cc2c(ccc(C(=O)/C=C/c3ccc(F)cc3)c2OCc2ccccc2)O1 | 44.2 | 23 | > 100 | 75.8 | – | – | – | – |
| CC1(C)Cc2c(OCc3ccccc3)ccc(C(=O)/C=C/c3ccc(Cl)cc3)c2O1 | > 100 | – | > 100 | – | < 10 | < 10 | – | – |
| CC1(C)Cc2c(O)ccc(C(=O)/C=C/c3cn(-c4ccccc4)nc3-c3cccc([N+](=O)[O-])c3)c2O1 | 25.6 | – | – | – | – | – | – | – |
| CC1(C)Cc2c(ccc(C(=O)/C=C/c3ccc(Br)cc3)c2OCc2ccccc2)O1 | > 50 | – | – | > 100 | < 10 | – | < 10 | – |
| CC1(C)Cc2c(OCc3ccccc3)ccc(C(=O)/C=C/c3ccc(F)cc3)c2O1 | – | – | > 100 | 22.3 | < 10 | – | – | < 10 |
| COc1ccc(/C=C/C(=O)c2ccc3c(c2OCc2ccccc2)CC(C)(C)O3)cc1 | 48.9 | – | > 100 | > 100 | < 10 | – | – | – |
| COc1ccc(-c2nn(-c3ccccc3)cc2/C=C/C(=O)c2ccc(O)c3c2OC(C)(C)C3)cc1 | 20.8 | – | – | – | – | – | – | – |
| COc1ccc(-c2nn(-c3ccccc3)cc2/C=C/C(=O)c2ccc3c(c2OCc2ccccc2)CC(C)(C)O3)cc1 | 18.4 | > 100 | – | > 100 | – | – | < 10 | – |
| CC1(C)Cc2c(ccc(C(=O)/C=C/c3cn(-c4ccccc4)nc3-c3ccc([N+](=O)[O-])cc3)c2OCc2ccccc2)O1 | 62.3 | – | – | – | < 10 | < 10 | < 10 | – |
| COc1cccc2c1C(=O)c1c(O)c3c(c(O)c1C2=O)C[C@@](O)(C(=O)CO)C[C@@H]3O[C@H]1C[C@H](N)[C@H](O)[C@H](C)O1 [DOXORUBICIN] | 5.9 | 19.3 | 0.03 | 5.6 | – | – | – | – |
| CC1(C)Cc2c(OCc3ccccc3)ccc(C(=O)/C=C/c3ccc(Br)cc3)c2O1 | > 100 | > 100 | – | > 100 | – | – | < 10 | – |
| CC1(C)Cc2c(OCc3ccccc3)ccc(C(=O)/C=C/c3ccccc3)c2O1 | – | – | 30.3 | > 100 | < 10 | – | – | < 10 |
| Cc1ccc(-c2nn(-c3ccccc3)cc2/C=C/C(=O)c2ccc(OCc3ccccc3)c3c2OC(C)(C)C3)cc1 | > 100 | – | > 100 | – | < 10 | < 10 | – | – |
| CC1(C)Cc2c(O)ccc(C(=O)/C=C/c3cn(-c4ccccc4)nc3-c3ccc(Cl)cc3)c2O1 | 18 | – | – | – | – | – | – | – |
| CC1(C)Cc2c(OCc3ccccc3)ccc(C(=O)/C=C/c3ccc(Cl)cc3Cl)c2O1 | > 100 | – | – | – | < 10 | < 10 | < 10 | – |
| COc1ccc(/C=C/C(=O)c2ccc(O)c3c2OC(C)(C)C3)cc1 | 48.4 | – | – | – | – | – | – | – |
| CC1(C)Cc2c(OCc3ccccc3)ccc(C(=O)/C=C/c3cn(-c4ccccc4)nc3-c3ccc([N+](=O)[O-])cc3)c2O1 | > 100 | > 100 | > 100 | > 100 | – | – | – | – |
| CC1(C)Cc2c(ccc(C(=O)/C=C/c3cn(-c4ccccc4)nc3-c3ccc(Cl)cc3)c2OCc2ccccc2)O1 | 26 | > 100 | – | > 100 | – | – | < 10 | – |
| CC1(C)Cc2c(ccc(C(=O)/C=C/c3ccccc3)c2OCc2ccccc2)O1 | > 100 | > 100 | > 100 | > 100 | – | – | – | – |
| Cc1ccc(-c2nn(-c3ccccc3)cc2/C=C/C(=O)c2ccc3c(c2OCc2ccccc2)CC(C)(C)O3)cc1 | 24.2 | > 100 | – | > 100 | – | – | < 10 | – |
| CC1(C)Cc2c(ccc(C(=O)/C=C/c3ccc(Cl)cc3Cl)c2OCc2ccccc2)O1 | – | > 100 | > 100 | > 100 | – | – | – | < 10 |
| CC1(C)Cc2c(ccc(C(=O)/C=C/c3cn(-c4ccccc4)nc3-c3ccccc3)c2OCc2ccccc2)O1 | > 100 | > 100 | > 100 | – | – | < 10 | – | – |
| CC1(C)Cc2c(ccc(C(=O)/C=C/c3ccc(Cl)cc3)c2OCc2ccccc2)O1 | > 100 | > 100 | – | > 100 | – | – | < 10 | – |
| COc1ccc(-c2nn(-c3ccccc3)cc2/C=C/C(=O)c2ccc(OCc3ccccc3)c3c2OC(C)(C)C3)cc1 | 7.9 | > 100 | – | – | – | < 10 | < 10 | – |
| CC1(C)Cc2c(OCc3ccccc3)ccc(C(=O)/C=C/c3cn(-c4ccccc4)nc3-c3ccc(Cl)cc3)c2O1 | 8.4 | – | – | – | < 10 | < 10 | < 10 | – |
| CC1(C)Cc2c(ccc(C(=O)/C=C/c3cn(-c4ccccc4)nc3-c3cccc([N+](=O)[O-])c3)c2OCc2ccccc2)O1 | > 100 | > 100 | > 50 | > 100 | – | – | – | – |
| CC1(C)Cc2c(OCc3ccccc3)ccc(C(=O)/C=C/c3cn(-c4ccccc4)nc3-c3ccccc3)c2O1 | – | – | > 100 | – | < 10 | < 10 | – | < 10 |
| CC1(C)Cc2c(OCc3ccccc3)ccc(C(=O)/C=C/c3cn(-c4ccccc4)nc3-c3cccc([N+](=O)[O-])c3)c2O1 | 5.9 | – | – | > 100 | < 10 | – | < 10 | – |
| COc1ccc(/C=C/C(=O)c2ccc(OCc3ccccc3)c3c2OC(C)(C)C3)cc1 | 13.5 | – | – | > 100 | < 10 | – | < 10 | – |
